Measurements reported in patent US20240343717A1, “MICROBIOCIDAL PYRAZOLE DERIVATIVES” (SYNGENTA CROP PROTECTION AG, priority 2021, published 2024).

Tests used:
[1] = tested on: Botryotinia fuckeliana (Botrytis cinerea); assay: Botryotinia fuckeliana (Botrytis cinerea) / liquid culture (gray mould); format: cell-based; conditions: growth inhibition photometrically 3-4 days after application, read-out: control of Botryotinia fuckeliana
Protocol: Example B2: Botryotinia fuckeliana (Botrytis cinerea)/Liquid Culture (Gray Mould) Conidia of the fungus from cryogenic storage are directly mixed into nutrient broth (Vogels broth). After placing a (DMSO) solution of test compound into a microtiter plate (96-well format), the nutrient broth containing the fungal spores is added. The test plates are incubated at 24° C. and the inhibition of growth is determined photometrically 3-4 days after application.

[2] = tested on: Glomerella lagenarium (Colletotrichum lagenarium); assay: Glomerella lagenarium (Colletotrichum lagenarium) / liquid culture (anthracnose); format: cell-based; conditions: Colletotrichum orbiculare, growth inhibition photometrically 3-4 days after application, read-out: control of Glomerella lagenarium
Protocol: Example B3: Glomerella lagenarium (Colletotrichum lagenarium)/Liquid Culture (Anthracnose) Conidia of the fungus from cryogenic storage are directly mixed into nutrient broth (PDB potato dextrose broth). After placing a (DMSO) solution of test compound into a microtiter plate (96-well format), the nutrient broth containing the fungal spores is added. The test plates are incubated at 24° C. and the inhibition of growth is measured photometrically 3-4 days after application.

[3] = tested on: Mycosphaerella arachidis (Cercospora arachidicola); assay: Mycosphaerella arachidis (Cercospora arachidicola) / liquid culture (early leaf spot); format: cell-based; conditions: growth inhibition photometrically 4-5 days after application, read-out: control of Mycosphaerella arachidis
Protocol: Example B10: Mycosphaerella arachidis (Cercospora arachidicola)/Liquid Culture (Early Leaf Spot) Conidia of the fungus from cryogenic storage are directly mixed into nutrient broth (PDB potato dextrose broth). After placing a (DMSO) solution of test compound into a microtiter plate (96-well format), the nutrient broth containing the fungal spores is added. The test plates are incubated at 24° C. and the inhibition of growth is determined photometrically 4-5 days after application.

[4] = tested on: Monographella nivalis (Microdochium nivale); assay: Monographella nivalis (Microdochium nivale) / liquid culture (foot rot cereals); format: cell-based; conditions: growth inhibition photometrically 4-5 days after application, read-out: control of Monographella nivalis
Protocol: Example B9: Monographella nivalis (Microdochium nivale)/Liquid Culture (Foot Rot Cereals) Conidia of the fungus from cryogenic storage are directly mixed into nutrient broth (PDB potato dextrose broth). After placing a (DMSO) solution of test compound into a microtiter plate (96-well format), the nutrient broth containing the fungal spores is added. The test plates are incubated at 24° C. and the inhibition of growth is determined photometrically 4-5 days after application.

[5] = tested on: Mycosphaerella graminicola (Septoria tritici); assay: Mycosphaerella graminicola (Septoria tritici) / liquid culture (Septoria blotch); format: cell-based; conditions: Zymoseptoria tritici, growth inhibition photometrically 4-5 days after application, read-out: control of Mycosphaerella graminicola
Protocol: Example B16: Mycosphaerella graminicola (Septoria tritici)/Liquid Culture (Septoria Blotch) Conidia of the fungus from cryogenic storage are directly mixed into nutrient broth (PDB potato dextrose broth). After placing a (DMSO) solution of test compound into a microtiter plate (96-well format), the nutrient broth containing the fungal spores is added. The test plates are incubated at 24° C. and the inhibition of growth is determined photometrically 4-5 days after application.

Alternaria solani = Alternaria solani / tomato / leaf disc (early blight); format: in vivo; conditions: foliar, tomato leaf disks, sprayed 2 days before inoculation, compared to untreated control
Protocol: Example B1: Alternaria solani/Tomato/Leaf Disc (Early Blight) Tomato leaf disks cv. Baby are placed on agar in multiwell plates (24-well format) and sprayed with the formulated test compound diluted in water. The leaf disks are inoculated with a spore suspension of the fungus 2 days after application. The inoculated leaf disks are incubated at 23° C./21° C.

Pyrenophora teres = Pyrenophora teres / barley / leaf disc preventative (net blotch); format: in vivo; conditions: foliar, barley leaf segments, inoculated 2 days after application
Protocol: Example B14: Pyrenophora teres/Barley/Leaf Disc Preventative (Net Blotch) Barley leaf segments cv. Hasso are placed on agar in a multiwell plate (24-well format) and sprayed with the formulated test compound diluted in water. The leaf segments are inoculated with a spore suspension of the fungus 2 days after application. The inoculated leaf segments are incubated at 20° C. and 65% rh under a light regime of 12 h light/12 h darkness in a climate cabinet and the activity of a compound is assessed as disease control compared to untreated when an appropriate level of disease damage appears in untreated check leaf segments (5-7 days after application).

C=C(C)COc1cc(Cl)nc(C(C)(CNC(=O)c2cc(-c3ccc(F)cc3F)on2)c2cnn(C)c2)c1 (stereo not drawn) [Compound P-68, N-[2-[6-chloro-4-(2-methylallyloxy)-2-pyridyl]-2-(1-methylpyrazol-4-yl)propyl]-5-(2,4-difluorophenyl) isoxazole-3-carboxamide]
≥ 80%: inhibition of growth at 20 ppm [1] | inhibition of growth at 20 ppm [2] | inhibition of growth at 20 ppm [3] | inhibition of growth at 20 ppm [4] | inhibition of growth at 20 ppm [5]

COc1ccnc(C(C)(CNC(=O)c2cc(-c3ccc(F)cc3F)on2)c2cnn(C)c2)c1 (stereo not drawn) [Compound P-7, 5-(2,4-difluorophenyl)-N-[2-(4-methoxy-2-pyridyl)-2-(1-methylpyrazol-4-yl)propyl]isoxazole-3-carboxamide]
≥ 80%: inhibition of growth at 20 ppm [2] | pest or weed control at 200 ppm (Alternaria solani) | inhibition of growth at 20 ppm [4] | inhibition of growth at 20 ppm [5]

Cn1cc(C(C)(CNC(=O)c2cc(-c3ccc(F)cc3F)on2)c2cccc(N)n2)cn1 (stereo not drawn) [Compound P-50, N-[2-(6-amino-2-pyridyl)-2-(1-methylpyrazol-4-yl)propyl]-5-(2,4-difluorophenyl) isoxazole-3-carboxamide]
≥ 80%: inhibition of growth at 20 ppm [1] | inhibition of growth at 20 ppm [2] | inhibition of growth at 20 ppm [3] | inhibition of growth at 20 ppm [4] | inhibition of growth at 20 ppm [5] | pest or weed control at 200 ppm (Pyrenophora teres)

Cn1cc(C(C)(CNC(=O)c2nnc(-c3ccc(F)cc3F)s2)c2ccc(Cl)cn2)cn1 (stereo not drawn) [Compound P-17, N-[2-(5-chloro-2-pyridyl)-2-(1-methylpyrazol-4-yl)propyl]-5-(2,4-difluorophenyl)-1,3,4-thiadiazole-2-carboxamide]
≥ 80%: inhibition of growth at 20 ppm [2] | inhibition of growth at 20 ppm [3] | inhibition of growth at 20 ppm [4] | inhibition of growth at 20 ppm [5]

Cn1ncc(C(CNC(=O)c2cc(-c3ccc(F)cc3F)on2)c2cccc(C#N)n2)c1Cl (stereo not drawn) [Compound P-117]
≥ 80%: inhibition of growth at 20 ppm [1] | inhibition of growth at 20 ppm [2] | inhibition of growth at 20 ppm [3] | inhibition of growth at 20 ppm [4] | inhibition of growth at 20 ppm [5]

Cn1cc(C(C)(CNC(=O)c2cc(C3CCCCC3)on2)c2cccc(Cl)n2)cn1 (stereo not drawn) [Compound P-79, N-[2-(6-chloro-2-pyridyl)-2-(1-methylpyrazol-4-yl)propyl]-5-cyclohexyl-isoxazole-3-carboxamide]
≥ 80%: inhibition of growth at 20 ppm [2] | inhibition of growth at 20 ppm [3] | inhibition of growth at 20 ppm [4] | inhibition of growth at 20 ppm [5] | pest or weed control at 200 ppm (Pyrenophora teres)

Cn1cc(C(C)(CNC(=O)c2cc(-c3ccc(F)cc3F)on2)c2ccncn2)cn1 (stereo not drawn) [Compound P-23, 5-(2,4-difluorophenyl)-N-[2-(1-methylpyrazol-4-yl)-2-pyrimidin-4-yl-propyl]isoxazole-3-carboxamide]
≥ 80%: pest or weed control at 200 ppm (Alternaria solani) | pest or weed control at 200 ppm (Pyrenophora teres)

COc1ccc(C(C)(CNC(=O)c2cc(-c3ccc(F)cc3F)on2)c2cnn(C)c2)nn1 (stereo not drawn) [Compound P-105, 5-(2,4-difluorophenyl)-N-[2-(6-methoxypyridazin-3-yl)-2-(1-methylpyrazol-4-yl)propyl] isoxazole-3-carboxamide]
≥ 80%: pest or weed control at 200 ppm (Alternaria solani) | pest or weed control at 200 ppm (Pyrenophora teres)

Cn1cc(C(C)(CNC(=O)c2cc(C3CC3)on2)c2cccc(Cl)n2)cn1 (stereo not drawn) [Compound P-78, N-[2-(6-chloro-2-pyridyl)-2-(1-methylpyrazol-4-yl)propyl]-5-cyclopropyl-isoxazole-3-carboxamide]
≥ 80%: inhibition of growth at 20 ppm [3] | inhibition of growth at 20 ppm [4] | inhibition of growth at 20 ppm [5]
